Measurements: PMC10668980, “Molecular Cloning, Heterologous Expression, Purification, and Evaluation of Protein–Ligand Interactions of CYP51 of Candida krusei Azole-Resistant Fungal Strain” (Biomedicines, 2023)
Where two headings read alike, the source gives them in different places.

Experiments:
[1] = target: T1, C. krusei CYP51 (C.krCYP51) (Pichia kudriavzevii, UniProt A9YUC7, K136R); settings: for ΔAmax: absorbance change at ligand saturation; for Type of Spectral Response: difference spectrum 350–500 nm
T1 sequence (A9YUC7 2-528 K136R): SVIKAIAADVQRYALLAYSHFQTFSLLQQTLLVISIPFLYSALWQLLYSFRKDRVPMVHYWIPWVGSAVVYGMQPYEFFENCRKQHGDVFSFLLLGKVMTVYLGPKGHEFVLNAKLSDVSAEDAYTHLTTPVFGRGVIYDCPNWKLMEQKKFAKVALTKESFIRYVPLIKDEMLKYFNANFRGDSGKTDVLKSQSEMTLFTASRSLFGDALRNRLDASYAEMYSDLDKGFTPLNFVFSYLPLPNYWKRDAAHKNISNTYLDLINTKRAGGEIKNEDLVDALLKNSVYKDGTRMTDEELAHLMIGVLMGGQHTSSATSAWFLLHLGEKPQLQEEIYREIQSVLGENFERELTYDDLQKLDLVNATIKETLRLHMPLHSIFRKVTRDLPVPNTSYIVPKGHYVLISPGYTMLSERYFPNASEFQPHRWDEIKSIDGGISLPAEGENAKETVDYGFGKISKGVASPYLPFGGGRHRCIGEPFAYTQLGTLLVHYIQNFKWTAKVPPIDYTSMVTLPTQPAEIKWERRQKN
Description: (§1) Dissociation constants of complexes of CYP51 with the substrate, inhibitors, and potential ligands were determined by the spectrophotometric titration method in [37]. Briefly, a protein solution (final concentration of 1 μM) in buffer (50 mM potassium phosphate buffer, pH 7.4) was placed in two cuvettes (1 × 1 cm), and a baseline was recorded on a spectrophotometer at a wavelength of 350–500 nm. The spectra were detected with a Cary 5000 UV-VIS-NIR spectrophotometer. A ligand solution was added to the experimental cuvette and an equal volume of solvent was added to the control cuvette; the change in optical absorption was recorded in the same wavelength range. The solutions in the cuvettes were thoroughly mixed by pipetting after adding the ligand solution or solvent and incubated for 1–2 min. The maximum and minimum absorption values were registered.
(§2) The dissociation constant of the enzyme–ligand complex (Kd) was used as a parameter characterizing the strength of ligand binding in the active site.

[2] = target: T1, C. krusei CYP51 (C.krCYP51); test: biochemical
Description: as §1, §2

Compound | ΔAmax ([1]; steroid derivatives) | Type of Spectral Response ([1]; steroid derivatives) | Kd [2] [nM] | ΔAmax ([1]; azoles) | Type of Spectral Response ([1]; azoles)
CC(C)=CCC[C@@H](C)[C@H]1CC[C@@]2(C)C3=C(CC[C@]12C)[C@@]1(C)CC[C@H](O)C(C)(C)[C@@H]1CC3 [Lanosterol] | 0.031 | type I | 2820 |  | 
CC(=O)O[C@@]12C=C[C@]3(C[C@H]1[N+](=O)[O-])C1CCc4cc(O)ccc4C1CC[C@@]32C (stereo partly drawn) [73c, 14,17-etheno-3-hydroxy-16α-nitroestra-1,3,5(10)-trien-17β-yl acetate] | 0.0069 | type I | 10700 |  | 
c1ccc(-c2ccc(C(c3ccccc3)n3ccnc3)cc2)cc1 (stereo not drawn) [Bifonazole] |  |  | 3 | 0.050 | type II
COC1C(OC2CCC3(C)C(C(O)CC4(O)C3CCC3(C)C(C(C)CCC(OC5OC(CO)C(O)C5O)C(C)C)CC(O)C34)C2O)OCC(O)C1O (stereo not drawn) [Ch-4, granulatoside A] | 0.0099 | type I | 6950 |  | 
C[C@@H](c1ncncc1F)[C@](O)(Cn1cncn1)c1ccc(F)cc1F [Voriconazole] |  |  | 10 | 0.023 | type II
CC(C)C(C=C[C@](C)(O)[C@H]1CC[C@H]2[C@@H]3CC=C4C[C@@H](O)CC[C@]4(C)[C@H]3CC[C@@]21C)=NO [compound 99, 3β,20-dihydroxy-24-hydroxyiminocholest-5,22-diene] | 0.0047 | type I | 1020 |  | 
